The record followed here is US20200131473A1, “METHOD OF GENERATING 2 CELL-LIKE STEM CELLS” (IFOM FONDAZIONE ISTITUTO FIRC DI ONCOLOGIA MOLECOLARE, priority 2017, published 2020).

The test system of data set [1] is morula stage mouse embryos. The data set can be described thus: qPCR for 2C-embryo specific genes in APH-treated morula-stage mouse embryos. It is filed as cell-based. How it is done: (§1) RNA was extracted using RNeasy mini kit (QIAGEN), quantified by NanoDrop spectrophotometer and cDNA was prepared from 2 μg total DNA-depleted RNA using SuperScript™ III reverse transcriptase kit (Invitrogen cat #18080-093) following manufacturer's instructions. qPCR assay performed based on standard protocol using 10× SsoFast™ EvaGreen® Supermix or later 1× LightCycler 480 SYBR Green I Master (Roche, 04707516001), 0.5 μM primer mix and 5 ng of cDNA. GAPDH was used as internal control to normalise the qPCR data following ΔΔCt method, 10 μM primer mix and a total amount of cDNA corresponding to 5 ng of starting RNA for each reaction.
Cryopreserved C57BL/6N morulae purchased from Janvier Labs (QUICKBLASTO®), were thawed according to the manufacturer's protocol. After recovery, a group of healthy morulae were treated with APH at final concentration of 1.5 μM in KSOM culture medium for 4 hrs while the rest were kept as control. The day after, the same number of morphologically healthy and synchronized blastocysts (22 and 7 blastocysts in the 1st and 2nd round, respectively) were selected from both groups. […] As the quantity of isolated RNA is not detectable by NanoDrop spectrophotometer, the supernatant was directly used for cDNA preparation following centrifugation at 10621 g for 2 minutes. cDNA preparation and qPCR were performed following the aforementioned protocols. […]
(In general: In qPCR the cycle at which signal appears reflects the starting amount.)

For data set [2], the system named is C57BL/6N morulae. The data set can be described thus: Viability of APH-treated embryos. It is filed as cell-based, mouse. The conditions noted are these: APH 1.5 μM in KSOM for 4 hrs.
Data set [3] has as its system 2C-like genes (Zscan4, MuERV-L/MERVL, Dux) in ESCs (E14, R1). The data set can be described thus: qPCR for 2C-like specific genes in ESCs. It is filed as cell-based, mouse. As for the experimental part:
All treatments including APH, HU, UV, ATRi, ATMi and Chk1i were added in to fresh ESC medium and the cells were kept in 37° C. and 3% 02 tension for overnight (16-17 hrs) unless mentioned in each particular result section. APH was used at various concentrations ranging from 0.3 uM to 6 uM that is mentioned in each experiment in order to induce mild to acute replication stress response. Similarly, HU was used at 0.1 mM-3 mM. ATMi (KU-55933) and ATRi (VE 822) were used at the concentration of 10 uM and 1 uM respectively. Moreover, Chk1i (UCN-01) at the concentration of 100 nM was used. UV radiation was performed at the dosage ranging from 2 to 10 J/m2. For induction of ETAA1-AAD expression, Dox was used at the concentration of 1 μg/mL for 48 hrs.
as §1

In data set [4] the test system is mouse embryonic fibroblast (MEF) lines. Briefly: qPCR for 2C-specific markers in MEF lines. It is filed as cell-based. The conditions noted are these: two MEF lines with distinct genetic backgrounds. How it is done: ESCs were grown in feeder free culture condition either with or without 0.1% gelatin coat and incubated in 37° C. and 3% 02 tension. ESC medium (high glucose DMEM (DMEM Media—GlutaMAX™-I, Gibco)), 15% ESC qualified FBS (HyClone™ Fetal Bovine Serum), 2 mM L-glutamine, 1/500 home-made leukemia inhibitory factor, 0.1 mM non-essential amino acids, 0.1 mM 2-bmercaptoethanol, 50 units/ml penicillin, […] streptomycin, 1 mM Sodium Pyruvate) supplemented with two inhibitors (2i from Axon medchem) that are PD 0325901; highly specific non-ATP-competitive inhibitor of MEK (aka MKK) 1/2 at final concentration of 1 uM and CHIR 99021; specific glycogen synthase kinase GSK-3 inhibitor at final concentration of 3 uM. MEF cells were cultured in MEF medium (high glucose DMEM (Lonza), 10% north America FBS, 2 mM L-glutamine, 0.1 mM non-essential amino acids, 50 units/ml penicillin, 1 mM Sodium Pyruvate and […] streptomycin).
RNA was extracted using RNeasy mini kit (QIAGEN), quantified by NanoDrop spectrophotometer and cDNA was prepared from 2 μg total DNA-depleted RNA using SuperScript™ III reverse transcriptase kit (Invitrogen cat #18080-093) following manufacturer's instructions. qPCR assay performed based on standard protocol using […] SsoFast™ EvaGreen® Supermix or later 1× LightCycler 480 SYBR Green I Master (Roche, 04707516001), 0.5 μM primer mix and 5 ng of cDNA. […]

Data set [5] deals with pZscan4-Emerald ESCs. The data set can be described thus: Cell cycle analysis of ESCs. It is filed as cell-based, mouse. The settings on record: APH 0.3 μM and 6 μM. An excerpt:
ESCs were fixed and permeabilized using Cytoperm/Cytofix kit (BD Biosciences), and subsequently stained for one hour at room temperature with Alexa Fluor® 647 anti-H2AX-Phosphorylated (Ser139) antibody (Biolegend) or P-CHK1-PE conjugated antibody (cell signaling 12268). Cells were washed and acquired on a FACS Calibur instrument or Attune NxT (Thermo Fisher Scientific). For Emerald-GFP acquisition, cells were trypsinized, collected and subsequently acquired without fixation. Cell cycle profiles were acquired after incubation with DAPI (4′,6-diamidino-2-phenylindole) overnight. For Caspase3 FACS analysis after fixation and permeabilization, Cleaved Caspase3 antibody were used for one hr at RT followed by washes and one hr incubation in donkey anti rabbit secondary antibody. […]

Structures are written as SMILES. Entries after “also recorded” stand apart in the source; their conditions may differ.

With `C[C@@]1(CO)[C@H](O)CC[C@@]2(C)[C@H]1CC[C@H]1C[C@@H]3C[C@@]12CC[C@]3(O)CO` [APH, aphidicolin], the “expression of 2C embryo specific markers Dux, MERVL and Gm4981 (qPCR)” value in data set [1] (morula-stage embryos treated with APH, blastocyst stage) is “activated the expression of several key 2C embryo specific markers”. In data set [1] (morula-stage embryos, APH 1.5 μM for 4 hrs, blastocysts analysed the day after), the “expression of 2C-embryo-specific genes Zscan4, Tcstv3, GM12794 and Eif1a (qPCR)” value is listed as “activate several key 2C-embryo-specific genes”. In addition, the “viability of the embryos” value in data set [2] is reported as “no effect on the viability of the embryos”. Also, in data set [3] (APH treatment), the “expression of key 2C-like genes in DUX KO ESCs” value was “could not induce” and the “main 2C-like genes, qPCR validation of profiling” value is “significant upregulation”. In addition, the “expression of 2C-like genes in ATR Seckel ESCs” value in data set [3] (APH treatment, unlike normal wild type ESC) was “milder increase; also recorded: mild increase”. The “expression of Zscan4 and MuERV-L (QPCR and FACS)” value in data set [3] (ESC lines E14 and R1, time and dosage-dependent) is “significantly upregulated”. For the same molecule, the “expression of main 2C-specific markers such as MuERV-L in MEF lines” value in data set [4] is listed as “do not alter”. In addition, in data set [5], the “G2/M population in culture” value is recorded as “neither at low (0.3 μM) nor at high (6 μM) concentrations could increase G2/M population”.
